In patent publication US20240182526A1, “COMPOSITIONS AND METHODS FOR MODULTING INFLAMMATORY AND DEGENERATIVE DISORDER” (University of Southern California, priority 2021, published 2024):
“Also recorded” adds a separate entry of the source.

Experiments:
[1] = system: ADAMTS4, ADAMTS5 and MMP13 transcription; experiment: qPCR of matrix-degrading genes in OSM-stimulated pig articular chondrocytes; type: cell-based; conditions: 48 hours
Protocol: Quantitative Real-Time PCR. Power SYBR Green (Applied Biosystems) RT-PCR amplification and detection was performed using an Applied Biosystems Step One Plus Real-Time PCR machine. The comparative Ct method for relative quantification (2-ΔΔCt) was used to quantitate gene expression. TBP (TATA-box binding protein) was used for gene normalization and expressed relative to a calibrator (sample in each set with lowest expression). Q-PCR for was conducted using the following primers: human: TBP forward, 5′ GATGGACGTTCGGTTTAGG 3′ (SEQ ID NO:28); TBP reverse, 5′ AGCAGCACAGTACGAGCAA 3′ (SEQ ID NO:29), MMP13 forward, 5′ […] 3′(SEQ ID NO:30); MMP13 reverse, 5′ GAACCCCGCATCTTGGCTT 3′ (SEQ ID NO:31), ADAMTS5 forward 5′ […] 3′ (SEQ ID NO:32); ADAMTS5 reverse, 5′ […] 3′ (SEQ ID NO:33), ADAMTS4 forward 5′ […] 3′ (SEQ ID NO:34); ADAMTS4 reverse, 5′ […] 3′ (SEQ ID NO:35), Collagen II forward, 5′ […] 3′ (SEQ ID NO:36); Collagen II reverse 5′ […] 3′ (SEQ ID NO:37); Aggrecan forward, 5′ AGGCAGCGTGATCCTTACC 3′ (SEQ ID NO:38); Aggrecan reverse, 5′ […] 3′ (SEQ ID NO:39). Cells were treated with 10 ng/mL OSM and/or with 5 μM SRC (SU6656) inhibitor, 10 ng/mL OSM and/or 50 ng/mL WT/F814 plasmids; 10 ng/mL OSM and/or 100 or 300 ug/mL of peptide QQpYF (Evseenko lab, Thermo Scientific); 10 uM R805 and/or 10 ng/mL OSM.

[2] = system: mouse skin excisional wound; experiment: Wound-induced hair neogenesis (WIHN) assay, skin excisional wound; type: in vivo
Protocol: Single-cell sequencing using 10× Genomics. Single cell samples were prepared using Next GEM Single Cell 5′ v2 (dual index) and Chip Kit (10× Genomics) according to the manufacturer's protocol. Briefly samples were FACS sorted using DAPI to select live cells followed by resuspension in 0.04% BSA-PBS. Nearly 1200 cells/μl were added to each well of the chip with a target cell recovery estimate of 10000 cells. Thereafter Gel bead-in Emulsions (GEMs) were generated using GemCode Single-Cell Instrument. GEMs were reverse transcribed, droplets were broken and single stranded cDNA was isolated. cDNAs were cleaned up with DynaBeads and amplified. Finally, cDNAs were ligated with adapters, post-ligation products were amplified, cleaned-up with SPRIselect and purified libraries were sequenced on Novaseq.
Wound-induced hair neogenesis assay. The WHIN assay was previously described. Briefly, a 1.5×1.5 cm square full thickness wound was excised on the posterior dorsum of 6-week-oldf mice, and observed for hair neogenesis and wound histology. Mice were anesthetized using isofluorane, full thickness skin was excised, and analgesic Buprenorphine SR (0.5 mg/kg) was given by intraperitoneal injection (IP) at the beginning of the procedure. Additional DietGel Boost (ClearH2O) was placed on the bottom of the cage during the first week post-operation. For R805-treatment, R805 (10 μM or 20 μM) was applied topically to the wound of WT mice.
Alkaline phosphatase (ALP) stain. To detect newly forming dermal papillae, alkaline phosphatase staining was performed as previously reported. Briefly, full thickness wounds were excised and epidermis separated from the dermis using 20 mM EDTA. The dermis was fixed in acetone overnight at 4° C., and washed in PBS several times. The dermis was pre-incubated in ALP buffer (0.1 M Tris-HCl, 0.1 M NaCl, 5 mM MgCl2 and 0.1% Tween-20) for 30 min, incubated with BCIP/NBT Color Development Substrate (Promega, Madison, WI, USA) in ALP buffer at 37° C. until color development. The reaction was stopped by washing with pH 8.0 Tris-EDTA and the tissue stored in PBS with sodium azide. 5 wounds were calculated for each strain of mice.
Hair fiber length quantification. To quantify regenerated hair fiber length, hair fibers from respective wounds were plucked, aligned and photographed next to a ruler under the dissecting microscope. The length of the hair fibers was measured and analyzed using ImageJ. 3-4 hairs were randomly plucked from each wound and analyzed.

gp130 and pSRC = experiment: Co-immunoprecipitation of complex formation between gp130 and pSRC in pig articular chondrocytes; type: cell-based; conditions: pig articular chondrocytes with or without OSM, 4 and 24 hours
Protocol: IP Western, SDS-PAGE and Western blot analysis. For transfections of gp130 wild type (WT) (InVivoGen) and gp130 mutant plasmids (Thermo Scientific), cells were plated 24 h prior to transfection to produce monolayers that were 60% confluent and these were transfected by using Turbo DNAfectin 3000 (cat #G3000, Lambda Biotech) according to the manufacturer's protocol. 72h after transfection, cells were maintained in DMEM (10% FBS, 1% PSA) and were either left untreated or were stimulated with IL-6 (10 ng/mL) and/or OSM (10 ng/mL) for 24 h before cell harvest and protein extraction. For immunoprecipitation assays, cell lysates were incubated with Protein G Agarose (cat #20398, Pierce) and anti-Flag antibody (cat #2368, Cell Signaling) at 4° C. overnight. The immune complexes were sedimented, washed and separated by SDS-PAGE (see below) and further analyzed by Western blot using p-SRC (pY416-SRC) (cat #1246F, Novus Biologicals) or NEMO (cat #18474-1-AP, Proteintech) antibodies and normalized to gp130 (cat #bs-1459R, Bioss) or total SRC (cat #2123, Cell Signaling). For R805 treatment, the immune complexes were sedimented, washed and separated by SDS-PAGE and further analyzed by Western blot using OSMR (cat #ab85575, Abcam), LIFR (Santa cat #515337, Cruz Biotechnology) or p-SRC (pY416-SRC) (Novus Biologicals, cat #1246F). Histone H3 (cat #9715, Cell Signaling), gp130 (cat #bs-1459R, Bioss), total SRC (cat #2123, Cell Signaling) or Flag antibody (cat #14739, Cell Signaling) were used as loading controls.
The studies delineate that gp130 Y814 regulates SRC downstream signaling; since SRC is known to associate with gp130, it was hypothesized that gp130 and SRC are capable of physically interacting on Y814 and hindering this interaction will prevent SRC from signaling. In order to impede this interaction, experiments were performed using an innovative peptide library screen with short and overlapping peptides mimicking the motif of gp130 around Y814 that were individually tested for pSRC downregulation; these peptides ranged from 4-15 amino acids. The peptides contained a protein sequence stretch of consecutive amino acids surrounding gp130 Y814 residue. To test their efficacy, pig articular chondrocytes were stimulated with or without OSM in presence or absence of the peptides followed by co-immunoprecipitation to determine interaction and western blot detecting pSRC activity. […] Due to sequence specificity, the peptide is capable of discriminating among other gp130 regions serving as a competitive inhibitor.

[3] = topical on WT mouse wound, PWD 21

## Cc1ccc(-c2csc(NC(=O)c3ccccn3)n2)cc1 [Peptide R805]
[1]
  OSM-induced transcription of matrix-degrading genes (ADAMTS4, ADAMTS5, MMP13), qPCR: able to decrease the MMP13 and ADAMTS4/5 gene expression
[2]; PWD 14
  scRNA-seq macrophage clusters of skin wounds: higher expression of genes characteristic of pro-regenerative/anti-inflammatory macrophages
[2]; topical on WT mouse wound
  hair fiber length and number of hair follicles: increase of hair fiber length and number of hair follicles
[2]; [3]
  hair follicle neogenesis and dermal regeneration: significant hair follicle neogenesis and dermal regeneration; also recorded: enhanced wound-induced hair neogenesis
  wound histology (thickness, contraction, collagen deposition): thicker, less contracted and shows less collagen deposition
gp130 and pSRC
  complex formation between gp130 and pSRC (gp130-SRC interaction): able to prevent endogenous interaction of SRC with gp130; also recorded: prevents SRC binding to gp130
